The values that follow come from patent US5688936A, “Vesicle membrane transport proteins” (priority 1993, dated 1997).

The subject of one series is dopamine nerve terminals. To be noted: mice; cited from earlier work.
The next series deals with central dopamine neurons. To be noted: primates; cited from earlier work.
In series [1] the target is T1, chromaffin granule amine transport protein (Rattus norvegicus, UniProt Q01818).
T1 sequence (Q01818 1-521): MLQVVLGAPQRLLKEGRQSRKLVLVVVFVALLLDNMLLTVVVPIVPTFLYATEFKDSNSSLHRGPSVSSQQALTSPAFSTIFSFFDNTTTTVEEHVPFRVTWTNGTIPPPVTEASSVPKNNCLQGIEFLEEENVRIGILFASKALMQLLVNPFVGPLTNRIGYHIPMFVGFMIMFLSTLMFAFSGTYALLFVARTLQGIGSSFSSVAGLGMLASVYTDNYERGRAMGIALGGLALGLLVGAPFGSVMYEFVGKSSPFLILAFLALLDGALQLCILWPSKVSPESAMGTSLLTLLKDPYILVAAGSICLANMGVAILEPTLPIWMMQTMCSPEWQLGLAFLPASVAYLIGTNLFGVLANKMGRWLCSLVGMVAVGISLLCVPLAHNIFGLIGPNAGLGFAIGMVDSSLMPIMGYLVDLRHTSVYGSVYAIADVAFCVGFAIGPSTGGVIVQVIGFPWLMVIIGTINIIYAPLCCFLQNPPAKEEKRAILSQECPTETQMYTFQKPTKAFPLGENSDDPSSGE
The series can be described thus: cell-based. In kind it is cell-based. To be noted: for inhibition of vesicular amine uptake/transport (fluorescence assay, in words): concentrations of Table 1. The method, then:
Uptake and cellular compartmentalization of loaded dopamine were performed by growing cells on poly-lysine-coated glass coverslips. […] The cells were then washed three times in 0.1M sodium phosphate, pH 7.4, and incubated at 4° C. in 2% glyoxylic acid/0.5 mg% MgCl2, pH 4.9-5.0 for three minutes as described by de la Torre, J. Neurosci. Meth. 3:1-5 (1980). Briefly, excess solution is wiped off the bottom and edges of the slide using absorbent paper, taking care not to touch the section. The coverslips were then drained thoroughly, dried in air at 45° C. heated to 80° C. for five minutes, inverted over mineral oil on glass slides and examined under fluorescence using the appropriate filters as described by Knigge et al., Brain Res. 120:393-405 (1977). Briefly, the preparations were infiltrated with warm immersion oil and examined in a Leitz MPV2 microspectrofluorometer equipped with Schoffel excitation and emission grating monochromators, photomultipliers, and ratio computing circuitry. Cells were scanned with either monochromatic light (370 nm) or narrow band excitation (S405, BG3) light for the purpose of identifying fluorescence within cells. Ploem illumination was used in combination with a X 63 or X 100 oil immersion objective.
Dopamine-loaded fluorescence was carried out as described in Example 1. […] Glyoxylic-acid-induced fluorescence was used to determine the intracellular distribution as described above in Example 1. The procedures were the same as described in Example 1 however a pure cDNA clone encoding the vesicle membrane transport protein, selected in the presence of MPP^+, obtained as described herein, was used rather than the primary transformant. […]
The effects of various pharmacologic agents were tested to determine whether the properties of the protein encoded by the mpp^res cDNA corresponded with those expected for the chromaffin granule amine transport protein. […] The cells were pre-incubated in Krebs-Ringer buffer containing 1 μM pargyline and the dose of the drug indicated for 15 minutes. 25 nM [^3 H]-dopamine was then added in the same buffer and after incubation at 37° C. for one hour, the cells were washed in cold Krebs-Ringer buffer, lysed and counted in Ecolite (ICN) as described by Greene and Rein, Brain Res. 129:247-263 (1978). Values were determined from three separate wells and the mean was expressed as percent of control uptake±standard deviation. […] The dose required to inhibit maximal uptake by 50%, Ki, was estimated from the fluorescence data using a range of concentrations for each agent.

Series [2] has as its system PC12 cells. To be noted: percent of control uptake ± SD; agent 10 mM; 25 nM [3H]-dopamine, 1 h, 37° C.
Protocol: (§2) The effects of various pharmacologic agents were tested to determine whether the properties of the protein encoded by the mpp^res cDNA corresponded with those expected for the chromaffin granule amine transport protein. […] The cells were pre-incubated in Krebs-Ringer buffer containing 1 μM pargyline and the dose of the drug indicated for 15 minutes. […] Values were determined from three separate wells and the mean was expressed as percent of control uptake±standard deviation.
For series [3], the system named is plasma membrane monoamine transport activity. To be noted: cited from earlier work.
Series [4] has as its target T1, chromaffin granule amine transport protein. The series can be described thus: Quantitative [3H]dopamine transport assay with mpp^res CHO cell homogenate. In kind it is biochemical. To be noted: dose-response, 2-minute incubation (FIG. 15C). The method, then:
The quantity of label bound is measured after filtration of the assay mixture. Preferably, the label is a radioactive label. […] This can be done by standard graphic kinetic techniques such as the Lineweaver-Burke plot.
Incubation was performed at 29° C. for the time period indicated (from 2 minutes to 30 minutes). The assay was terminated by dilution in cold assay buffer followed by filtration through 0.2 μm Supor™ 200 membranes (Gelman, Ann Arbor, Mich.) and the bound radioactivity was measured. The cells used for the quantitative assay are selected in MPP^+ or screened with antibody to ensure that they express the transporter at high levels, as it is difficult to measure activity in this assay at low levels of transporter expression.
The quantitative transport test was performed as described above on wild-type CHO cells and mpp^res CHO cells.

A further series deals with idiopathic PD. To be noted: in vivo, cited from earlier work.
For a further series, the system named is monoamine oxidase. To be noted: cited from earlier work.
Another series deals with wild-type CHO cells. The series can be described thus: MTT cytotoxicity assay in wild-type CHO cells. Format: cell-based, Chinese hamster. To be noted: CHO cells (FIG. 6b). The method, then:
(§1) Differential susceptibility to the respiratory complex I inhibitors MPP^+ and rotenone was shown by measuring toxicity by measuring general cell dehydrogenase activity with reduction of a tetrazolium dye (MTT) in a spectrophotometric plate assay as described by Hansen et al., J. Immunol. Methods 119:203-210 (1989). Briefly, a stock solution of MTT (3,(4,5-dimethylthiazol-2-yl)2,5-diphenyltetrazolium bromide) was dissolved at a concentration of 5 mg/ml in sterile phosphate buffered saline at room temperature. To each well was added 25 μl of the stock solution. After two hours of incubation at 37° C., 100 μl of extraction buffer (20% w/v of SDS in a solution of 50% each dimethylformamide and demineralized water with the pH adjusted to 4.7 with acetic acid and HCl). After an overnight incubation at 37° C., the optical densities at 570 nm were measured using a multiscanner, employing the extraction buffer as the blank. This assay was carried out in triplicate on 96-well plates (NUNC, Denmark). MPP^+ and rotenone at the concentrations indicated in FIG. 6a and 6b, respectively, was added to wild-type and MPP^+ -resistant CHO cells at approximately 50% confluence, and toxicity was assayed after 2-3 days by measuring general cell dehydrogenase activity with the reduction of the tetrazolium dye MTT (3,(4,5-dimethylthiazol-2-yl)2,5-diphenyl-tetrazolium bromide). After addition of the dye at a final concentration of 1 mg/ml, the cells were incubated for two hours at 37° C. and the formazan product was solubilized in 10% sodium dodecyl sulfate (SDS). The plates were maintained at 37° C. for an additional twenty hours and the optical density was determined in an ELISA plate reader at a test wavelength of 570 nm, a reference wavelength of 630 nm and a calibration setting of 1.99. All determinations were performed in triplicate and expressed as the mean, with the error bars representing standard deviation (FIG. 6a and 6b).
In general terms: Formazan colour is commonly taken as a measure of viable cells.

Series [5] deals with MPP^+ -resistant CHO cells. The series can be described thus: MTT cytotoxicity assay in MPP+-resistant transfected CHO cells. Format: cell-based, Chinese hamster. As for the experimental part: as §1
To determine whether an alteration in the process of respiration was responsible for the resistance to MPP^+, the effects of other known respiratory inhibitors were examined. […] Thus, if the resistance were due to a change in the site of action, the transfected cells should also show resistance to rotenone. […] However, rotenone is considered to have its selected effect on respiration at relatively low doses, and an additional, less specific effect at higher doses.
Therefore, the toxicity of MPP^+ to transfected cells in the presence of 1 μM reserpine was examined.

In a further series the test system is respiratory complex I. To be noted: cited from earlier work.
Series [6] concerns vesicular amine transport protein. To be noted: cited from earlier work.
Series [7] has as its system PC12 cells. The series can be described thus: cells. To be noted: Rattus norvegicus, PC-12, 1 h, read-out: [^3 H]-Dopamine Uptake (PC12).
Protocol: as §2
Another series has as its system amine stores. To be noted: in vivo; cited from earlier work.
Another series has as its system chromaffin cells. To be noted: co-incubation with MPP+; cited from earlier work.
Series [8] concerns complex III of the respiratory chain. To be noted: cited from earlier work.
The next series deals with midbrain cells. To be noted: in vitro; cited from earlier work.

For orientation: Ki means a dissociation constant, usually derived from enzyme kinetics or from competition with a known ligand.

Entries after “also recorded” stand apart in the source; their conditions may differ. Read-outs that look alike come from different tables or passages of the source.

Turning to `CN1CC=C(c2ccccc2)CC1` [1-methyl-4-phenyl-1,2,3,6-tetrahydropyridine], the “damage to dopamine nerve terminals” value in the series with dopamine nerve terminals is given as “dopamine nerve terminals in mice”. Moreover, the “damage to central dopamine neurons” value with central dopamine neurons is listed as “Damage to central dopamine neurons”.

As for `Cl.N` [NH4 Cl, ammonium chloride], in [1], the “inhibition of vesicular amine uptake/transport (fluorescence assay, in words)” value was “inhibited uptake only partially”. Besides, in the series with PC12 cells [2], the “[^3 H]-Dopamine Uptake (PC12)” value turned out to be 51 ± 3%.

For `COC(=O)[C@H]1[C@@H](OC(=O)c2ccccc2)C[C@@H]2CC[C@H]1N2C` [cocaine], the “inhibition of plasma membrane monoamine transport” value in series [3] is reported as “inhibiting this activity”. Also, in series [4], the “inhibition of dopamine transport” value is recorded as “no inhibition”.

With `C#CCN(C)C(C)Cc1ccccc1` (stereo not shown) [deprenyl], the “rate of progression of Parkinson's disease” value was “slow the rate of progression of the disease” with idiopathic PD and “appears to slow the rate of progression” in the series with idiopathic PD (listed as Deprenyl). For the same molecule, the “inhibition of monoamine oxidase” value in the series on monoamine oxidase was “inhibits the enzyme that activates MPTP, monoamine oxidase”.

Consider `C=C(C)[C@H]1Cc2c(ccc3c2O[C@@H]2COc4cc(OC)c(OC)cc4[C@@H]2C3=O)O1` [rotenone], for which the “rotenone toxicity pattern (MTT assay)” value in the series on wild-type CHO cells is “biphasic pattern”. For the same molecule, the “resistance of the transfectant to rotenone” value in series [5] (vs wild-type) is “no substantial resistance”. Also, the “inhibition of respiratory complex I” value in the series with respiratory complex I is on record as “inhibits complex I”.

For the molecule `COc1cc2c(cc1OC)C1CC(=O)C(CC(C)C)CN1CC2` (stereo not shown) [tetrabenazine], the “inhibition of vesicular amine uptake/transport (fluorescence assay, in words)” value in series [1] is listed as “inhibited transport, but at high concentrations”. Further, the inhibitory constant (Ki) in series [1] (dose required to inhibit maximal uptake by 50%, estimated from fluorescence data, read-out: Ki (est)) was 100 µM. In addition, in [6], the “inhibition of vesicular amine transport” value is listed as “an inhibitor of vesicular uptake; also recorded: inhibit this transport activity”. In addition, in the series with PC12 cells [7], the activity at 100 µM was 45 ± 2%. For the same molecule, the “potency to deplete central rather than adrenal amine stores” value in the series with amine stores is given as “greater potency of that drug to deplete central rather than adrenal amine stores”. For the same molecule, in series [4], the “inhibition of dopamine transport” value is “inhibition by both reserpine and tetrabenazine”. Besides, the “effect on MPP+ toxicity to chromaffin cells” value in the series with chromaffin cells is given as “chromaffin cell toxicity was potentiated”.

As to oligomycin, the oligomycin toxicity pattern result in [5] (wild-type vs resistant transfected CHO cells) is “same pattern of toxicity in wild-type and in resistant transfected CHO cells”. For the same molecule, the “inhibition of respiratory complex III” value in [8] was “inhibits complex III”.

B1: brain-derived neurotrophic factor (BDNF): neurotrophic factors such as brain-derived neurotrophic factor (BDNF) (protein, UniProt P23560 19-247, looked up)
Neurotrophic factor BDNF …: APMKEANIRGQGGLAYPGVRTHGTLESVNGPKAGSRGLTSLADTFEHVIEELLDEDQKVRPNEENNKDADLYTSRVMLSSQVPLEPPLLFLLEEYKNYLDAANMSMRVRRHSDPARRGELSVCDSISEWVTAADKKTAVDMSGGTVTVLEKVPVSKGQLKQYFYETKCNPMGYTKEGCRGIDKRHWNSQCRTTQSYVRALTMDSKKRIGWRFIRIDTSCVCTLTIKRGR
Regarding B1, the “protection of midbrain cells from MPP+” value in the series on midbrain cells is given as “can protect midbrain cells from MPP^+ in vitro”.
